Source: PubChem BioAssay AID248 (DTP/NCI, 2004)
Inconclusive results and toxic doses are left out.

Test system: L1210 leukemia ip in BDF1 mice, survival T/C
Assay: NCI In Vivo Anticancer Drug Screen. Data for tumor model L1210 Leukemia (intraperitoneal) in B6D2F1 (BDF1) mice
Details: endpoint: mean survival time, higher = longer survival
Method in brief: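 Value reflects the ratio of survival in compound-treated mice to survival in vehicle-treated controls, with both groups carrying the same transplanted tumor.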

[1] = dose: 100.0 mg/kg/injection, schedule: Q04DX003 (ip), vehicle: saline with Tween-80
[2] = dose: 200.0 mg/kg/injection, schedule: Q04DX003 (ip), vehicle: saline with Tween-80
[3] = dose: 400.0 mg/kg/injection, schedule: Q04DX003 (ip), vehicle: saline with Tween-80

SMILES: CCC(C)(C)C(=O)Nc1cccc(O)c1
- T/C [1]: 92 % of control
- T/C [2]: 90 % of control
- T/C [3]: 95 % of control

SMILES: COc1nc2ccccc2c2ccccc12
- T/C (dose: 100.0 mg/kg/injection, schedule: Q01DX001 (ip), vehicle: other): 105 % of control
- T/C (dose: 200.0 mg/kg/injection, schedule: Q01DX001 (ip), vehicle: other): 102 % of control
- T/C (dose: 400.0 mg/kg/injection, schedule: Q01DX001 (ip), vehicle: other): 107 % of control

SMILES: O=C1c2ccccc2C(=O)N1CCCCCN1C(=O)c2ccccc2C1=O
- T/C (dose: 100.0 mg/kg/injection, schedule: Q01DX001 (ip), vehicle: saline with Tween-80): 102 % of control
- T/C (dose: 100.0 mg/kg/injection, schedule: Q04DX002 (ip), vehicle: saline with Tween-80): 104 % of control
- T/C (dose: 200.0 mg/kg/injection, schedule: Q01DX001 (ip), vehicle: saline with Tween-80): 96 % of control
- T/C (dose: 200.0 mg/kg/injection, schedule: Q04DX002 (ip), vehicle: saline with Tween-80): 96 % of control
- T/C (dose: 400.0 mg/kg/injection, schedule: Q01DX001 (ip), vehicle: saline with Tween-80): 98 % of control
- T/C (dose: 400.0 mg/kg/injection, schedule: Q04DX002 (ip), vehicle: saline with Tween-80): 101 % of control

SMILES: CCCCCCCCCCCCCCCCCC(=O)OC1C(CO)OC2C1Oc1nc(=N)ccn12 (stereo unspecified)
- T/C (dose: 12.5 mg/kg/injection, schedule: Q01DX009 (ip), vehicle: other): 165 % of control
- T/C (dose: 25.0 mg/kg/injection, schedule: Q01DX009 (ip), vehicle: other): 190 % of control
- T/C (dose: 50.0 mg/kg/injection, schedule: Q01DX009 (ip), vehicle: other): 235 % of control
- T/C (dose: 100.0 mg/kg/injection, schedule: Q01DX009 (ip), vehicle: other): 283 % of control
- T/C (dose: 200.0 mg/kg/injection, schedule: Q01DX009 (ip), vehicle: other): 120 % of control

SMILES: CC(=O)OC1c2ccccc2C(=O)C1(OC(C)=O)c1ccccc1 (stereo unspecified)
- T/C (dose: 100.0 mg/kg/injection, schedule: Q01DX009 (ip), vehicle: Klucel (hydroxypropylcellulose) (HPC)): 101 % of control
- T/C (dose: 100.0 mg/kg/injection, schedule: Q04DX003 (ip), vehicle: Klucel (hydroxypropylcellulose) (HPC)): 97 % of control
- T/C (dose: 200.0 mg/kg/injection, schedule: Q01DX009 (ip), vehicle: Klucel (hydroxypropylcellulose) (HPC)): 107 % of control
- T/C (dose: 200.0 mg/kg/injection, schedule: Q04DX003 (ip), vehicle: Klucel (hydroxypropylcellulose) (HPC)): 100 % of control
- T/C (dose: 400.0 mg/kg/injection, schedule: Q01DX009 (ip), vehicle: Klucel (hydroxypropylcellulose) (HPC)): 101 % of control
- T/C (dose: 400.0 mg/kg/injection, schedule: Q04DX003 (ip), vehicle: Klucel (hydroxypropylcellulose) (HPC)): 102 % of control

SMILES: CC(C)(CO)NCC1CCCC(CNC(C)(C)CO)C1 (stereo unspecified)
- T/C (dose: 50.0 mg/kg/injection, schedule: Q01DX001 (ip), vehicle: carboxymethylcellulose (CMC)): 92 % of control
- T/C (dose: 100.0 mg/kg/injection, schedule: Q01DX001 (ip), vehicle: carboxymethylcellulose (CMC)): 101 % of control

SMILES: COc1ccc(C=NC(C)(C)CO)cc1OC
- T/C (dose: 100.0 mg/kg/injection, schedule: Q01DX001 (ip), vehicle: steriod suspending solution): 108 % of control
- T/C (dose: 200.0 mg/kg/injection, schedule: Q01DX001 (ip), vehicle: steriod suspending solution): 103 % of control
- T/C (dose: 400.0 mg/kg/injection, schedule: Q01DX001 (ip), vehicle: steriod suspending solution): 101 % of control

SMILES: Cc1cc(C)cc(C(C)C)c1
- T/C [1]: 96 % of control
- T/C [2]: 96 % of control
- T/C [3]: 93 % of control
